US12409304B2, “Drug delivery devices with drug-permeable component and methods” (TARIS Biomedical LLC, priority 2013, dated 2025)
Where a name gives a salt, the structure may show the parent alone.

Experiments:
[1] = physchem; conditions: 37 °C, water
[2] = Approximate solubility of drugs in water
[3] = In vitro drug permeation from Tecophilic film pouches loaded with a gemcitabine tablet (Example 1); assay type: physicochemical; conditions: DI water at 37° C.
Description: Pouches formed of Tecophilic™ film and loaded with gemcitabine (GEM) were tested in vitro for drug permeation. The effect of gamma irradiation on these pouches was also studied. The pouches were made of HP-93A-100 and HP-60D-60 films with thickness of 0.5 mm (films provided by Lubrizol) (http://www.lubrizol.com/Medical/Products/Tecophilic.html). These thermoplastic polyurethanes (TPUs) were selected for their biocompatibility and ability to absorb equilibrium water content up to 100% of the weight of dry resin, as well as other properties. The material properties of the film materials used are given below in Table 1. Each pouch was made out of 2 films which were heat-sealed at all four edges of each pouch after loading each pouch with a single tablet of gemcitabine HCl or base formulated as follows: (1) Gemcitabine HCl: 89% GEM HCl, 10% Isomalt, 1% Lubritab (water insoluble), or […] Some of the pouches were gamma irradiated (25 kGy). The pouches were then placed into 21 mL DI water at 37° C. Thereafter, at each time point, 5× inversion, 1 mL sample was taken out followed by a 1 mL DI water refill.

[4] = In vitro release from Tecophilic film pouches loaded with gemcitabine HCl and urea tablets (Example 1A); assay type: physicochemical; conditions: pouches with 1 gemcitabine HCl tablet and 4 urea tablets, DI water at 37° C.
Description: Pouches constructed as in Example 1 were made, except each was loaded with 1 gemcitabine (GEM) HCl tablet and 4 tablets of urea. The pouches were then placed into 21 mL DI water at 37° C. Thereafter, at each time point, 5× inversion, 1 mL sample was taken out followed by a 1 mL DI water refill.

[5] = In vitro gemcitabine release from one-module and four-module devices with end wall disks (Example 5); assay type: physicochemical; conditions: one module device, jar rotated at 4 rpm or not
Description: There were three experimental groups tested: 1) one module device with the releasing jar being rotated in the rotator at 4 rpm ('Rotator'), 2) one module device without the jar rotated ('Static'), and 3) four module device without the jar rotated ('Static'). Each module is comprised of silicone tube made of MED-4750 (Nusil) with the dimensions of 2.64 mm ID and 0.20 mm wall thickness. Multiple gemcitabine HCl tablets with 2.6 mm OD were loaded into the silicone tube with each module having a total gemcitabine HCl payload of approximately 190 mg. The tablet formulation was 90% gemcitabine HCl, 5% PVP, 2.5% Neusilin, and 2.5% magnesium stearate. […] Thermoplastic Polyurethanes) at each end of the tablet drug core. The dimensions of each disk were approximately 0.5 mm thickness and 3.0 mm OD. The OD (3.0 mm) of the disks was larger than the silicone tube ID (2.64 mm), and so the disks were frictionally fit in the silicone tube. Each module has a silicone outer washer, made of MED-4780 (Nusil), located next to each disk with silicone adhesive (MED3-4213) applied around the washer, to stabilize the outward migration of the disk. […] In addition, each module has a polyimide inner washer with 2.67 mm ID, 0.064 mm wall, and approximately 4 mm length. The inner washer was filled with a tablet so that the disk was initially in contact with the tablet. […]

Structure (SMILES): Cc1ccc(O)c([C@H](CCN(C(C)C)C(C)C)c2ccccc2)c1 [tolterodine tartrate]
- solubility [1]: ~12 mg/mL

Structure (SMILES): O=C(O[C@H]1C[C@H]2CC[C@@H](C1)[N+]21CCCC1)C(O)(c1ccccc1)c1ccccc1 [trospium chloride]
- solubility ([2]; 37 °C, water): ~500 mg/mL

Structure (SMILES): Nc1ccn([C@@H]2O[C@H](CO)[C@@H](O)C2(F)F)c(=O)n1 [gemcitabine base]
- approximate solubility ([2]; water at 37° C.): ~15 mg/mL

Structure (SMILES): Nc1ccn([C@@H]2O[C@H](CO)[C@@H](O)C2(F)F)c(=O)n1 [gemcitabine]
- permeation through 0.5 mm Tecophilic film ([3]; HP-93A-100 and HP-60D-60 pouches): permeated 0.5 mm Tecophilic™ film
- permeation through 0.5 mm Tecophilic film [4]: permeated 0.5 mm Tecophilic™ film in one day
- gemcitabine release rate, Static vs Rotator [5]: no significant difference

Structure (SMILES): NC(N)=O [urea]
- permeation through 0.5 mm Tecophilic film [4]: permeated 0.5 mm Tecophilic™ film in one day

Structure (SMILES): Nc1ccn([C@@H]2O[C@H](CO)[C@@H](O)C2(F)F)c(=O)n1 [gemcitabine HCl]
- relative speed of release from pouches ([3]; comparison of film grades and of drug forms): released faster than gemcitabine base
- solubility [1]: ~80 mg/mL
